# Measured values taken from PubChem BioAssay (NCI).
#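 Test compounds were applied to cells in 96-well plates for 48 hours at 5 doses. TGI: total growth inhibition.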
# Legend:
# Experiment in all cases: growth of human tumour cells (NCI), 48 h
# [1] = tested on: 786-0 renal
# [2] = tested on: HL-60(TB) leukemia
# [3] = tested on: SK-OV-3 ovarian
# [4] = tested on: NCI-H460 lung
# [5] = tested on: TK-10 renal
# [6] = tested on: LOX IMVI melanoma
# [7] = tested on: MDA-N
# [8] = tested on: EKVX NSCLC
# [9] = tested on: HCC-2998 colon
# [10] = tested on: NCI-H23 lung
# [11] = tested on: UACC-257 melanoma
# [12] = tested on: DU-145 prostate
# [13] = tested on: A549 NSCLC
# [14] = tested on: HOP-92 NSCLC
# [15] = tested on: HOP-62 NSCLC
# [16] = tested on: SF-539 CNS
# [17] = tested on: SK-MEL-5 melanoma
# [18] = tested on: SN12C renal
# [19] = tested on: RPMI-8226 leukemia
# [20] = tested on: SNB-75 CNS
# [21] = tested on: SF-268 CNS
# [22] = tested on: NCI-H522 lung
# [23] = tested on: NCI/ADR-RES ovarian
# [24] = tested on: PC-3 prostate
# [25] = tested on: OVCAR-5 ovarian
# [26] = tested on: IGROV1 ovarian
# [27] = tested on: ACHN renal
# [28] = tested on: SR leukemia
# [29] = tested on: MCF7 breast
# [30] = tested on: HT29 colon
# [31] = tested on: UO-31 renal
# [32] = tested on: KM12 colon
# [33] = tested on: SK-MEL-28 melanoma
# [34] = tested on: SNB-19 CNS
# [35] = tested on: HCT-15 colon
# [36] = tested on: OVCAR-3 ovarian
# [37] = tested on: CCRF-CEM leukemia
# [38] = tested on: SF-295 CNS
# [39] = tested on: CAKI-1 renal
# [40] = tested on: MOLT-4 leukemia
# [41] = tested on: BT-549 breast
# [42] = tested on: K-562 leukemia
# [43] = tested on: U251 CNS
# [44] = tested on: COLO 205 colon
# [45] = tested on: RXF 393 renal
# [46] = tested on: MDA-MB-231 breast
# [47] = tested on: SK-MEL-2 melanoma
# [48] = tested on: T-47D breast
# [49] = tested on: OVCAR-8 ovarian
# [50] = tested on: M14 melanoma
# [51] = tested on: SW-620 colon
# [52] = tested on: MDA-MB-435
# [53] = tested on: MALME-3M melanoma
# [54] = tested on: OVCAR-4 ovarian
# [55] = tested on: HS 578T breast
# [56] = tested on: UACC-62 melanoma
# [57] = tested on: HCT-116 colon
# [58] = tested on: A498 renal
# [59] = tested on: NCI-H226 lung
smiles,measurement,setting,value
NC(N)=NC1C(O)C(O)C(O)C(N=C(N)N)C1O (configuration not stated),TGI,[1],> 100 µM
same,TGI,[2],> 100 µM
same,TGI,[3],> 100 µM
same,TGI,[4],> 100 µM
same,TGI,[5],> 100 µM
same,TGI,[6],> 100 µM
same,TGI,[7],> 100 µM
same,TGI,[8],> 100 µM
same,TGI,[9],> 100 µM
same,TGI,[10],> 100 µM
same,TGI,[11],> 100 µM
same,TGI,[12],> 100 µM
same,TGI,[13],> 100 µM
same,TGI,[14],> 100 µM
same,TGI,[15],> 100 µM
same,TGI,[16],> 100 µM
same,TGI,[17],> 100 µM
same,TGI,[18],> 100 µM
same,TGI,[19],> 100 µM
same,TGI,[20],> 100 µM
same,TGI,[21],> 100 µM
same,TGI,[22],> 100 µM
same,TGI,[23],> 100 µM
same,TGI,[24],> 100 µM
same,TGI,[25],> 100 µM
same,TGI,[26],> 100 µM
same,TGI,[27],> 100 µM
same,TGI,[28],> 100 µM
same,TGI,[29],> 100 µM
same,TGI,[30],> 100 µM
same,TGI,[31],> 100 µM
same,TGI,[32],> 100 µM
same,TGI,[33],> 100 µM
same,TGI,[34],> 100 µM
same,TGI,[35],> 100 µM
same,TGI,[36],> 100 µM
same,TGI,[37],> 100 µM
same,TGI,[38],> 100 µM
same,TGI,[39],> 100 µM
same,TGI,[40],> 100 µM
same,TGI,[41],> 100 µM
same,TGI,[42],> 100 µM
same,TGI,[43],> 100 µM
same,TGI,[44],> 100 µM
same,TGI,[45],> 100 µM
same,TGI,[46],> 100 µM
same,TGI,[47],> 100 µM
same,TGI,[48],> 100 µM
same,TGI,[49],> 100 µM
same,TGI,[50],> 100 µM
same,TGI,[51],> 100 µM
same,TGI,[52],> 100 µM
same,TGI,[53],> 100 µM
same,TGI,[54],> 100 µM
same,TGI,[55],> 100 µM
same,TGI,[56],> 100 µM
same,TGI,[57],> 100 µM
same,TGI,[58],> 100 µM
CC(C)OC(=S)Nc1ccc(Cl)c(/C=N/OC(C)(C)C)c1,TGI,[1],34.3 µM
same,TGI,[2],37.8 µM
same,TGI,[3],41.6 µM
same,TGI,[4],33.1 µM
same,TGI,[5],17.1 µM
same,TGI,[6],34.3 µM
same,TGI,[7],42 µM
same,TGI,[8],36.3 µM
same,TGI,[9],41.4 µM
same,TGI,[10],39.4 µM
same,TGI,[11],37.4 µM
same,TGI,[12],17.6 µM
same,TGI,[13],40 µM
same,TGI,[14],25.5 µM
same,TGI,[15],41.4 µM
same,TGI,[16],31.7 µM
same,TGI,[17],31.8 µM
same,TGI,[18],31.6 µM
same,TGI,[19],51.3 µM
same,TGI,[20],54.7 µM
same,TGI,[21],40.4 µM
same,TGI,[22],30.8 µM
same,TGI,[23],16.8 µM
same,TGI,[24],38.1 µM
same,TGI,[25],30.8 µM
same,TGI,[26],36.6 µM
same,TGI,[27],28.7 µM
same,TGI,[28],39.3 µM
same,TGI,[29],51 µM
same,TGI,[30],28.6 µM
same,TGI,[31],27.2 µM
same,TGI,[32],17.6 µM
same,TGI,[33],44.8 µM
same,TGI,[34],44.2 µM
same,TGI,[59],34.2 µM
same,TGI,[35],32.4 µM
same,TGI,[36],33.6 µM
same,TGI,[37],36.8 µM
same,TGI,[38],18.6 µM
same,TGI,[39],32.8 µM
same,TGI,[40],30.8 µM
same,TGI,[41],34.1 µM
same,TGI,[42],43 µM
same,TGI,[43],31.7 µM
same,TGI,[44],32.3 µM
same,TGI,[45],30.9 µM
same,TGI,[46],31.5 µM
same,TGI,[47],37.5 µM
same,TGI,[48],38.7 µM
same,TGI,[49],17 µM
same,TGI,[50],39.9 µM
same,TGI,[51],32 µM
same,TGI,[52],32.3 µM
same,TGI,[53],34.2 µM
same,TGI,[54],35.3 µM
same,TGI,[55],38.6 µM
same,TGI,[56],30.9 µM
same,TGI,[57],29.9 µM
same,TGI,[58],28.2 µM
